Where only a bound is given, the exact number is not on record here.

Usually Ki stands for the equilibrium dissociation constant of an inhibitor or competing ligand from its target. Lower therefore signals tighter binding. As a reminder, the EC50 is the concentration at which the effect is half-maximal.

One test has as its target GST-Bcl-XL (Homo sapiens, UniProt Q07817). The test can be described thus: TR-FRET binding assay, GST-Bcl-XL with F-Bak peptide probe. The following applies: TR-FRET Binding Affinity, GST-Bcl-XL, F-Bak peptide probe. In outline:
(§1)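 Competitive TR-FRET: GST-fusion protein, fluorescent Bak peptide probe and Tb-labelled anti-GST antibody incubated with compound dilution series (starting 50 μM as 2× stock, 10% DMSO) for 3 h at RT. Excitation 340/35 nm; Ki derived via Wang's exact competitive-binding equation.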
In general terms: In TR-FRET formats the signal depends on donor and acceptor labels being close together.

A further test has as its target GST-Bcl-2 (Homo sapiens, UniProt P10415). The experiment in a line: TR-FRET binding assay, GST-Bcl-2 with F-Bak peptide probe. The following applies: TR-FRET Binding Affinity, GST-Bcl-2, F-Bak peptide probe. In outline:
as §1

In another test the test system is FL5.12/Bcl-2 cells. The test can be described thus: FL5.12/Bcl-2 cell viability assay under IL-3 withdrawal (CellTitre Glo). It counts as cell-based, murine. Particulars: Mus musculus, IL-3 withdrawn 48 hrs, then 24 hrs with compound. In outline: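 Bcl-2-overexpressing murine FL5.12 transfectants underwent IL-3 removal for 48 hrs before a 24 hr compound treatment. Cell viability was quantified with CellTitre Glo.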

Sequence of GST-Bcl-XL (Q07817 whole entry, the tested form may be a part): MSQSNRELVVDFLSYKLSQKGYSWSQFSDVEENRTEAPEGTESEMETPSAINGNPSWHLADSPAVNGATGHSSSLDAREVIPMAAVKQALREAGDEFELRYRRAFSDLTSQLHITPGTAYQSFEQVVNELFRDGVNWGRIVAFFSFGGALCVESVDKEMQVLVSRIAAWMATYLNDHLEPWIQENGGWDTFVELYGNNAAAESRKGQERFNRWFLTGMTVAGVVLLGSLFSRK
Sequence of GST-Bcl-2 (P10415 whole entry): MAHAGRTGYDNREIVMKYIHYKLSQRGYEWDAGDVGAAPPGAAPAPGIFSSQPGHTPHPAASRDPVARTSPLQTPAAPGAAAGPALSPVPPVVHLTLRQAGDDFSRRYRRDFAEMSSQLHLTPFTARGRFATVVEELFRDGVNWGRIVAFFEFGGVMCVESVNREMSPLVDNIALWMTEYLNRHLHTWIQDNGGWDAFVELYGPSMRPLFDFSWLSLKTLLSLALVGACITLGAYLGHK

Turning to `CC1(C)CCC(CN2CCN(c3ccc(C(=O)NS(=O)(=O)c4cnc(NCC5CCOCC5)c(Br)c4)c(Oc4ccc5[nH]ccc5c4)c3)CC2)=C(c2ccc(Cl)cc2)C1` [Example 350, N-({5-bromo-6-[(tetrahydro-2H-pyran-4-ylmethyl)amino]pyridin-3-yl}sulfonyl)-4-(4-{[2-(4-chlorophenyl)-4,4-dimethylcyclohex-1-en-1-yl]methyl}piperazin-1-yl)-2-(1H-indol-5-yloxy)benzamide], the values for the inhibition constant Ki on GST-Bcl-XL and at GST-Bcl-2 were greater than 660 nM and 5.97 nM, respectively. The 50% effective concentration (EC50) with FL5.12/Bcl-2 cells is 311 nM.

On to `CC1(C)CCC(CN2CCN(c3ccc(C(=O)NS(=O)(=O)c4ccc(NCCN5CCOCC5)c(S(=O)(=O)C(F)(F)F)c4)c(Oc4ccc5[nH]ccc5c4)c3)CC2)=C(c2ccc(Cl)cc2)C1` [Example 351, 4-(4-{[2-(4-chlorophenyl)-4,4-dimethylcyclohex-1-en-1-yl]methyl}piperazin-1-yl)-2-(1H-indol-5-yloxy)-N-({4-[(2-morpholin-4-ylethyl)amino]-3-[(trifluoromethyl)sulfonyl]phenyl}sulfonyl)benzamide], for which the inhibitory constant (Ki) was greater than 660 nM on GST-Bcl-XL and 1.58 nM on GST-Bcl-2. Also, in the test on FL5.12/Bcl-2 cells, the EC50 amounted to 345 nM.

Take `CC1(C)CCC(CN2CCN(c3ccc(C(=O)NS(=O)(=O)c4cnc(NCC5CCOCC5)c(C#N)c4)c(Oc4ccc5[nH]ccc5c4)c3)CC2)=C(c2ccc(Cl)cc2)C1` [Example 352, 4-(4-{[2-(4-chlorophenyl)-4,4-dimethylcyclohex-1-en-1-yl]methyl}piperazin-1-yl)-N-({5-cyano-6-[(tetrahydro-2H-pyran-4-ylmethyl)amino]pyridin-3-yl}sulfonyl)-2-(1H-indol-5-yloxy)benzamide]: the results for the Ki at GST-Bcl-XL and on GST-Bcl-2 were greater than 660 nM and 6.82 nM, respectively. Moreover, the EC50 with FL5.12/Bcl-2 cells was determined as 156 nM.

`CN1CCC(Oc2ccc(S(=O)(=O)NC(=O)c3ccc(N4CCN(CC5=C(c6ccc(Cl)cc6)CC(C)(C)CC5)CC4)cc3Oc3ccc4[nH]ccc4c3)cc2[N+](=O)[O-])CC1` [Example 353, 4-(4-{[2-(4-chlorophenyl)-4,4-dimethylcyclohex-1-en-1-yl]methyl}piperazin-1-yl)-2-(1H-indol-5-yloxy)-N-({4-[(1-methylpiperidin-4-yl)oxy]-3-nitrophenyl}sulfonyl)benzamide]: the inhibition constant Ki is greater than 660 nM at GST-Bcl-XL and 0.292 nM on GST-Bcl-2. In addition, the EC50 in the test with FL5.12/Bcl-2 cells stood at 58.3 nM.

On to `CN1CCC(COc2ccc(S(=O)(=O)NC(=O)c3ccc(N4CCN(CC5=C(c6ccc(Cl)cc6)CC(C)(C)CC5)CC4)cc3Oc3ccc4[nH]ccc4c3)cc2[N+](=O)[O-])CC1` [Example 354, 4-(4-{[2-(4-chlorophenyl)-4,4-dimethylcyclohex-1-en-1-yl]methyl}piperazin-1-yl)-2-(1H-indol-5-yloxy)-N-({4-[(1-methylpiperidin-4-yl)methoxy]-3-nitrophenyl}sulfonyl)benzamide], for which the inhibition constant (Ki) was 5.41 nM on GST-Bcl-XL and 0.036 nM on GST-Bcl-2. For the same molecule, in the test on FL5.12/Bcl-2 cells, the EC50 amounted to 5.6 nM.

On to `O=C(NS(=O)(=O)c1ccc(NCC2CCOCC2)c([N+](=O)[O-])c1)c1ccc(N2CCN(CC3=C(c4ccc(Cl)cc4)CCN(CCCO)C3)CC2)cc1Oc1cccc2[nH]ccc12` [Example 355, 4-(4-{[4-(4-chlorophenyl)-1-(3-hydroxypropyl)-1,2,5,6-tetrahydropyridin-3-yl]methyl}piperazin-1-yl)-2-(1H-indol-4-yloxy)-N-({3-nitro-4-[(tetrahydro-2H-pyran-4-ylmethyl)amino]phenyl}sulfonyl)benzamide], for which the results for the Ki at GST-Bcl-XL and on GST-Bcl-2 were greater than 660 nM and 0.12 nM, respectively. In addition, the concentration giving a half-maximal response (EC50) in the test with FL5.12/Bcl-2 cells was greater than 500 nM.

Take `CC1(C)CCC(CN2CCN(c3ccc(C(=O)NS(=O)(=O)c4ccc(NCC5CCN(C(=O)OCc6ccccc6)CC5)c([N+](=O)[O-])c4)c(Oc4ccc5[nH]ccc5c4)c3)CC2)=C(c2ccc(Cl)cc2)C1` [Example 356, benzyl 4-({[4-({[4-(4-{[2-(4-chlorophenyl)-4,4-dimethylcyclohex-1-en-1-yl]methyl}piperazin-1-yl)-2-(1H-indol-5-yloxy)benzoyl]amino}sulfonyl)-2-nitrophenyl]amino}methyl)piperidine-1-carboxylate]: the values for the Ki at GST-Bcl-XL and at GST-Bcl-2 were greater than 660 nM and 5.02 nM, respectively. Also, the concentration for a half-maximal effect (EC50) with FL5.12/Bcl-2 cells was greater than 500 nM.

Regarding `CC1(C)CCC(CN2CCN(c3ccc(C(=O)NS(=O)(=O)c4ccc(OCC5CCOCC5)c(C(N)=O)c4)c(Oc4ccc5[nH]ccc5c4)c3)CC2)=C(c2ccc(Cl)cc2)C1` [Example 357, N-{[3-(aminocarbonyl)-4-(tetrahydro-2H-pyran-4-ylmethoxy)phenyl]sulfonyl}-4-(4-{[2-(4-chlorophenyl)-4,4-dimethylcyclohex-1-en-1-yl]methyl}piperazin-1-yl)-2-(1H-indol-5-yloxy)benzamide], the values for the inhibition constant Ki at GST-Bcl-XL and on GST-Bcl-2 were greater than 660 nM and 1.34 nM, respectively. For the same molecule, in the test with FL5.12/Bcl-2 cells, the concentration giving a half-maximal response (EC50) is greater than 500 nM.

As to `O=C(NS(=O)(=O)c1ccc(NC2CCN(C3CCOCC3)CC2)c([N+](=O)[O-])c1)c1ccc(N2CCN(Cc3ccc(C(F)(F)F)cc3-c3ccc(Cl)cc3)CC2)cc1Oc1ccc2[nH]ccc2c1` [Example 358, 4-(4-{[4′-chloro-5-(trifluoromethyl)-1,1′-biphenyl-2-yl]methyl}piperazin-1-yl)-2-(1H-indol-5-yloxy)-N-({3-nitro-4-[(1-tetrahydro-2H-pyran-4-ylpiperidin-4-yl)amino]phenyl}sulfonyl)benzamide], the Ki is greater than 660 nM at GST-Bcl-XL and 5.42 nM at GST-Bcl-2. Moreover, in the test on FL5.12/Bcl-2 cells, the EC50 is greater than 500 nM.

With `CC(C)(C)c1ccc(CN2CCN(c3ccc(C(=O)NS(=O)(=O)c4ccc(NC5CCN(C6CCOCC6)CC5)c([N+](=O)[O-])c4)c(Oc4ccc5[nH]ccc5c4)c3)CC2)c(-c2ccc(Cl)cc2)c1` [Example 359, 4-{4-[(5-tert-butyl-4′-chloro-1,1′-biphenyl-2-yl)methyl]piperazin-1-yl}-2-(1H-indol-5-yloxy)-N-({3-nitro-4-[(1-tetrahydro-2H-pyran-4-ylpiperidin-4-yl)amino]phenyl}sulfonyl)benzamide], the inhibition constant Ki at GST-Bcl-XL is greater than 660 nM; on GST-Bcl-2, 13.5 nM. Moreover, the 50% effective concentration (EC50) with FL5.12/Bcl-2 cells was greater than 500 nM.

Consider `Cn1cncc1CNc1ccc(S(=O)(=O)NC(=O)c2ccc(N3CCN(CC4=C(c5ccc(Cl)cc5)CC(C)(C)CC4)CC3)cc2Oc2ccc3[nH]ccc3c2)cc1[N+](=O)[O-]` [Example 360, 4-(4-{[2-(4-chlorophenyl)-4,4-dimethylcyclohex-1-en-1-yl]methyl}piperazin-1-yl)-2-(1H-indol-5-yloxy)-N-[(4-{[(1-methyl-1H-imidazol-5-yl)methyl]amino}-3-nitrophenyl)sulfonyl]benzamide], for which the inhibition constant Ki was 144 nM on GST-Bcl-XL and 0.228 nM on GST-Bcl-2. Moreover, the concentration giving a half-maximal response (EC50) in the test on FL5.12/Bcl-2 cells amounted to 106 nM.

As for `CC1(C)CCC(CN2CCN(c3ccc(C(=O)NS(=O)(=O)c4ccc(S(=O)(=O)N5CCOCC5)cc4)c(Oc4ccc5[nH]ccc5c4)c3)CC2)=C(c2ccc(Cl)cc2)C1` [Example 361, 4-(4-{[2-(4-chlorophenyl)-4,4-dimethylcyclohex-1-en-1-yl]methyl}piperazin-1-yl)-2-(1H-indol-5-yloxy)-N-{[4-(morpholin-4-ylsulfonyl)phenyl]sulfonyl}benzamide], the Ki on GST-Bcl-XL is greater than 660 nM; at GST-Bcl-2 it was 7.13 nM. The concentration giving a half-maximal response (EC50) in the test with FL5.12/Bcl-2 cells is greater than 500 nM.

Take `CC1(C)CCC(CN2CCN(c3ccc(C(=O)NS(=O)(=O)c4ccc(NN5CCS(=O)(=O)CC5)c([N+](=O)[O-])c4)c(Oc4ccc5[nH]ccc5c4)c3)CC2)=C(c2ccc(Cl)cc2)C1` [Example 362, 4-(4-{[2-(4-chlorophenyl)-4,4-dimethylcyclohex-1-en-1-yl]methyl}piperazin-1-yl)-N-({4-[(1,1-dioxidothiomorpholin-4-yl)amino]-3-nitrophenyl}sulfonyl)-2-(1H-indol-5-yloxy)benzamide]: the Ki turned out to be 290 nM on GST-Bcl-XL and 0.082 nM on GST-Bcl-2. In addition, the EC50 with FL5.12/Bcl-2 cells turned out to be 171 nM.

As to `CC1(C)CCC(CN2CCN(c3ccc(C(=O)NS(=O)(=O)c4ccc(NC5CCC(N6CCOCC6)CC5)c([N+](=O)[O-])c4)c(Oc4ccc5[nH]ccc5c4)c3)CC2)=C(c2ccc(Cl)cc2)C1` (stereo not drawn) [Example 363, 4-(4-{[2-(4-chlorophenyl)-4,4-dimethylcyclohex-1-en-1-yl]methyl}piperazin-1-yl)-2-(1H-indol-5-yloxy)-N-({4-[(4-morpholin-4-ylcyclohexyl)amino]-3-nitrophenyl}sulfonyl)benzamide], the Ki at GST-Bcl-XL was greater than 660 nM; on GST-Bcl-2 it was 0.18 nM. Moreover, in the test with FL5.12/Bcl-2 cells, the half-maximal effective concentration (EC50) was 86.9 nM.

Turning to `CC1(C)CCC(CN2CCN(c3ccc(C(=O)NS(=O)(=O)c4cnc(OCC5CCOCC5)c(Br)c4)c(Oc4cccc5[nH]ccc45)c3)CC2)=C(c2ccc(Cl)cc2)C1` [Example 364, N-{[5-bromo-6-(tetrahydro-2H-pyran-4-ylmethoxy)pyridin-3-yl]sulfonyl}-4-(4-{[2-(4-chlorophenyl)-4,4-dimethylcyclohex-1-en-1-yl]methyl}piperazin-1-yl)-2-(1H-indol-4-yloxy)benzamide], the Ki on GST-Bcl-XL amounted to 76 nM; on GST-Bcl-2, 0.006 nM. Further, the concentration for a half-maximal effect (EC50) with FL5.12/Bcl-2 cells was 185 nM.

Regarding `CC1(C)CCC(CN2CCN(c3ccc(C(=O)NS(=O)(=O)c4cnc(NCC5CCOCC5)c(-c5nccs5)c4)c(Oc4cccc5[nH]ccc45)c3)CC2)=C(c2ccc(Cl)cc2)C1` [Example 365, 4-(4-{[2-(4-chlorophenyl)-4,4-dimethylcyclohex-1-en-1-yl]methyl}piperazin-1-yl)-2-(1H-indol-4-yloxy)-N-{[6-[(tetrahydro-2H-pyran-4-ylmethyl)amino]-5-(1,3-thiazol-2-yl)pyridin-3-yl]sulfonyl}benzamide], the inhibition constant Ki at GST-Bcl-XL was greater than 660 nM; at GST-Bcl-2 it was 1.08 nM. In addition, in the test on FL5.12/Bcl-2 cells, the half-maximal effective concentration (EC50) is greater than 500 nM.

Source of the values: patent US9073855B2, “BCL-2 selective apoptosis-inducing agents for the treatment of cancer and immune diseases” (AbbVie Inc., priority 2008, dated 2015).
